Consider two substances from paper PMC10206162 (Nature Communications, 2023).

Like-named read-outs stand apart in the source and are kept apart here. Where no end group is shown, it is not given here.

For one experiment, the target named is human NaV1.9 (Homo sapiens, UniProt Q9UI33). Format: cell-based.
The target of the next experiment is human NaV1.6 (Homo sapiens, UniProt Q9UQD0). Kind of experiment: cell-based.
In the next experiment the target is human NaV1.7 (Homo sapiens, UniProt Q15858). The experiment in a line: cell-based.
Sequence of human NaV1.7 (Q07699 19-218): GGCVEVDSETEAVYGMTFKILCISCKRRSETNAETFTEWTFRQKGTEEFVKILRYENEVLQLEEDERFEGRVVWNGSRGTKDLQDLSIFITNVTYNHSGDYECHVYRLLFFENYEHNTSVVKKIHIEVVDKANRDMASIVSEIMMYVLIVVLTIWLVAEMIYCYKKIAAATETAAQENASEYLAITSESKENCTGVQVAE
Sequence of human NaV1.7 (Q15858 whole entry): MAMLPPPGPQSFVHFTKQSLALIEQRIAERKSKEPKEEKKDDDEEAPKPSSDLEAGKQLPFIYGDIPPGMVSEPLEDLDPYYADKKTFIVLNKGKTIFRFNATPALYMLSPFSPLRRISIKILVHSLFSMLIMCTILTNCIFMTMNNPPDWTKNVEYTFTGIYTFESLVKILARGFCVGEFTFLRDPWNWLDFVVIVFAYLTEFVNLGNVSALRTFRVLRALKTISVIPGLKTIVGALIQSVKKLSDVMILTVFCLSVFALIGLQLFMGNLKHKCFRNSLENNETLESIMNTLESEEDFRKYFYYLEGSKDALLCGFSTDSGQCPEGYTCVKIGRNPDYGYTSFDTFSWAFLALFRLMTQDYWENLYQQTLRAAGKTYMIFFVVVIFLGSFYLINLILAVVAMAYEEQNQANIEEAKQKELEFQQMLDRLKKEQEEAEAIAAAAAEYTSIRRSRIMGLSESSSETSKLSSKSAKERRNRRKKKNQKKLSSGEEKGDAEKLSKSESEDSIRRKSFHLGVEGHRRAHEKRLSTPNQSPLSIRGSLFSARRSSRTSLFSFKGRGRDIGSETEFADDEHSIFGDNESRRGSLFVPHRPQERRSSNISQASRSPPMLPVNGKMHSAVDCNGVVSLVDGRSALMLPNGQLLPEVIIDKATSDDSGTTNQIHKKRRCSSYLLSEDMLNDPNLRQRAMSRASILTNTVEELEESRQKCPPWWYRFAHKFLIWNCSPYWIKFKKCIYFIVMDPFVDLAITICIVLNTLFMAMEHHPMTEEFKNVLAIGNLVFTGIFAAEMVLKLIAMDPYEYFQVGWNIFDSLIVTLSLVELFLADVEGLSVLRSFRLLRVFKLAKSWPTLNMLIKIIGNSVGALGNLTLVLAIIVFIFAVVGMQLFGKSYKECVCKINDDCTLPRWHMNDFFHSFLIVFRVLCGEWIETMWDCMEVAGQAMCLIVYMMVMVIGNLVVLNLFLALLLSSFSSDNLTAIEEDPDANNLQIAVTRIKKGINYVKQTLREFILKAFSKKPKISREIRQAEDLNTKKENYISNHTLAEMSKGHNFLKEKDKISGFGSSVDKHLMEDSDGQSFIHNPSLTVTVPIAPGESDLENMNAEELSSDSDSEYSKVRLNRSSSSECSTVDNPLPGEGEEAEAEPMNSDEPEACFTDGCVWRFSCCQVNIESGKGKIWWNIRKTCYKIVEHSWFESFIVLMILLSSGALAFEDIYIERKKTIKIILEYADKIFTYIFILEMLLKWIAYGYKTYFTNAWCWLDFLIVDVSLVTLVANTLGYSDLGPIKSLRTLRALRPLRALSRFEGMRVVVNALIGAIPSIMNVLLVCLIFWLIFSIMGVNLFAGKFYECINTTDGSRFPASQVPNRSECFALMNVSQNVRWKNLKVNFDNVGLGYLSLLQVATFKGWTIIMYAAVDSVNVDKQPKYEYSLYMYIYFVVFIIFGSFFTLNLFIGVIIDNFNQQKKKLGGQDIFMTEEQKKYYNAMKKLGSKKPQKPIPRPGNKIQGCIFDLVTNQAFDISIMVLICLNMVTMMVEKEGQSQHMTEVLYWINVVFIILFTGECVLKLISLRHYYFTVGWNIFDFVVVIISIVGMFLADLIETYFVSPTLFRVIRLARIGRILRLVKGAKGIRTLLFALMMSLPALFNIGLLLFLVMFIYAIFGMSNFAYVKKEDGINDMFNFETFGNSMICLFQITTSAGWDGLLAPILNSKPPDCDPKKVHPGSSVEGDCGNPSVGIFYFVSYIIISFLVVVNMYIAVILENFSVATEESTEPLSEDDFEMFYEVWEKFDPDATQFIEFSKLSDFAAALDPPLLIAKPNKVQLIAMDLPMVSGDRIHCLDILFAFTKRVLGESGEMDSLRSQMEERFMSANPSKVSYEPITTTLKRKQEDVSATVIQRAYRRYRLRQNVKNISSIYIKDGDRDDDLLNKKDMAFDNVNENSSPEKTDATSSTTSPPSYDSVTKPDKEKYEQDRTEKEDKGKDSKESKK
For a further experiment, the target named is mouse NaV1.7 (Mus musculus, UniProt Q62205). The experiment in a line: cell-based. Format: cell-based. The procedure:
HEK293 cells stably expressing the α-subunit of mouse Nav1.7, human NaV1.6 or Nav1.7 plus the β1 subunit (SB Drug Discovery, Glasgow, United Kingdom) and Chinese Hamster Ovary (CHO) cells stably expressing human NaV1.8 plus the β3 subunit in a tetracycline-inducible system (ChanTest, Cleveland, OH, United States), were cultured were maintained on MEM supplemented with 10% heat-inactivated FBS, 2 mM L-glutamine in an incubator at 37 °C with 5% CO2 and passaged every 3–4 days (at 70–80% confluency) using TrypLE Express (Thermo Fisher Scientific).
Whole-cell patch-clamp experiments were performed using a QPatch16X automated electrophysiology platform (Sophion Bioscience, Ballerup, Denmark). The extracellular solution (ECS) contained 145 mM NaCl (replaced with 70 mM choline chloride for NaV1.7), 4 mM KCl, 2 mM CaCl2, 1 mM MgCl2, 10 mM HEPES, and 10 mM glucose (pH 7.4; osmolarity, 305 mOsm). The intracellular solution (ICS) contained 140 mM CsF, 1 mM/5 mM EGTA/CsOH, 10 mM HEPES, and 10 mM NaCl (pH 7.3) with CsOH (osmolarity, 320 mOsm). Peptides were diluted in ECS with 0.1% BSA.
Concentration-response experiments were performed using a holding potential of −90 mV and a 50-ms pulse to −20 mV ( + 10 mV for NaV1.8) every 20 s (0.05 Hz). […] Conductance-voltage curves were obtained by calculating the conductance (G) at each voltage (V) using the equation G = I/(V – Vrev), where Vrev is the reversal potential, and they were fitted with the following single or double Boltzmann equations: I = Imax/{1 + exp[(V50 − Vm)/k]} or I = {Imax(a)/[1+exp({V50 (a) – Vm}/k(a))]} + {Imax(b)/[1 + exp({V50(b) – Vm}/k(b))]}, where Imax is the maximal current after normalisation to the driving force, V50 is the half-activation potential, Vm is the membrane potential, and k is the slope factor. For statistical comparison of G-V curves, a two-tailed unpaired t-test was used.

Another experiment addresses human NaV1.8 (Homo sapiens, UniProt Q9Y5Y9). Kind of experiment: cell-based. Conditions: EC50 (potency), hNaV1.8.

Sequence of mouse NaV1.7 (Q62205 whole entry): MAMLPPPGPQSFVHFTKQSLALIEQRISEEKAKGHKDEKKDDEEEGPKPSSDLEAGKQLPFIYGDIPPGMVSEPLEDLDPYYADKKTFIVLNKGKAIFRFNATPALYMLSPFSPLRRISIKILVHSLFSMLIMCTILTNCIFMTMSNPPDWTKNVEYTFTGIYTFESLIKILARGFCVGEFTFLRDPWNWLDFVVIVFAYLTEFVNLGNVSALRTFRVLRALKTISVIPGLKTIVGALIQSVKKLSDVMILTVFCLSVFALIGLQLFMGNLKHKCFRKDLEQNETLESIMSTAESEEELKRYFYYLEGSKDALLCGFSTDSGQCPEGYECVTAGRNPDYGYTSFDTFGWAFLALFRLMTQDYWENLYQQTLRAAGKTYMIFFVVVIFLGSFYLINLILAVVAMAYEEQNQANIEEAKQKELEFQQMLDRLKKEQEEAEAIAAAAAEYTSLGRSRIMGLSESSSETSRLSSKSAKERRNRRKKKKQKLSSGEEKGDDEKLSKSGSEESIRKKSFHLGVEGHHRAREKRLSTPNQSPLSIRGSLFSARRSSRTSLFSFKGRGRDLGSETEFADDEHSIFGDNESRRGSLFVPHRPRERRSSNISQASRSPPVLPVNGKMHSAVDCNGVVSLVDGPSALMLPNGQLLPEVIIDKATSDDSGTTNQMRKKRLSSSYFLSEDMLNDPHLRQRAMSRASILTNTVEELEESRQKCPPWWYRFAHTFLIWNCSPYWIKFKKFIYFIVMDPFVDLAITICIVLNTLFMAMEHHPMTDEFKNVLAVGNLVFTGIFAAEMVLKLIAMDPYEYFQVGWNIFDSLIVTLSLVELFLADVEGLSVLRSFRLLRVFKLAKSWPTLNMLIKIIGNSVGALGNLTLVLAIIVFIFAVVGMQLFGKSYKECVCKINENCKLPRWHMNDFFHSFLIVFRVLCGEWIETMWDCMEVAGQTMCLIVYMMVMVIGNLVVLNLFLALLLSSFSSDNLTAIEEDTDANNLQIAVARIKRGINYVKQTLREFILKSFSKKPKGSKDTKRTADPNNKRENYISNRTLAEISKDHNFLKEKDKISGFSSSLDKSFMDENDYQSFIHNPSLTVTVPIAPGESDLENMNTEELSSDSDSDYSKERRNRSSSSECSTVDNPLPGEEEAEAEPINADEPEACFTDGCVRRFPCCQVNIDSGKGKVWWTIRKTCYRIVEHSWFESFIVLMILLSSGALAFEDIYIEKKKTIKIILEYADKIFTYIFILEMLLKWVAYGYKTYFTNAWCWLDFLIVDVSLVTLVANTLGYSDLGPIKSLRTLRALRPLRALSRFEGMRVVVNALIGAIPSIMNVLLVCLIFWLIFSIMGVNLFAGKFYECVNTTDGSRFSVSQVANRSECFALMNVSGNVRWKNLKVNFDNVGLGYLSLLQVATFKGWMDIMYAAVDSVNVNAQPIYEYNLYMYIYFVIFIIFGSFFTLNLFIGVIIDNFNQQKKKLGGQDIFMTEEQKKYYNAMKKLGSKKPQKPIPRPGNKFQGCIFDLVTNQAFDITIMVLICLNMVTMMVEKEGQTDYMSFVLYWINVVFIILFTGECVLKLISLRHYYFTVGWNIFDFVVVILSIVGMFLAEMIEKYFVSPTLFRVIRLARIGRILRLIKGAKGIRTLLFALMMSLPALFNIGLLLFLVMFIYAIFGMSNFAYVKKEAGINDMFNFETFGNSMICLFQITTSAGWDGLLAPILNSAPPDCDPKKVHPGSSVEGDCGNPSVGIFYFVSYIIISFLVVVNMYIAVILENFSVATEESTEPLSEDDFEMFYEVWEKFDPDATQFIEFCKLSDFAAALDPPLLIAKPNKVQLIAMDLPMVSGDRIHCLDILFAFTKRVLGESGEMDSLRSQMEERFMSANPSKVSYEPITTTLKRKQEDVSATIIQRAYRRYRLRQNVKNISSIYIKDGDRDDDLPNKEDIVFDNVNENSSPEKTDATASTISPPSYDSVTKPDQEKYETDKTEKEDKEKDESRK
Sequence of mouse NaV1.7 (Q07699 19-218, further chain): as the sequence (Q07699 19-218) above

With “FLPLLILGSLLMTPPVIQAIHDAQR-NH2 [Pc1a, poneratoxin]”, at human NaV1.9 (SEM), the “hNaV1.9 I50-ms, % of peak” value came out at 58.6 ± 4.4%. The EC50 is 97 ± 10 nM on human NaV1.6 (SEM); 2300 ± 400 nM on human NaV1.7 (EC50 (potency), hNaV1.7, SEM); 1160 nM at mouse NaV1.7; 1800 ± 200 nM at mouse NaV1.7 (EC50 (potency), mNaV1.7, HEK293, hold −90 mV, pulse to −20 mV, I40-ms/Imax, mean ± SEM, SEM); 718 to 2680 nM at mouse NaV1.7 (EC50, 95% CI (profile likelihood), mNaV1.7 (I40ms), Supplementary Fig. 2f / 2i); above 10000 nM at human NaV1.8. Moreover, the “hNaV1.7 peak current amplitude, % of control” value on human NaV1.7 was found to be 57.8 ± 4.9%. Besides, on human NaV1.7 (SEM), the “hNaV1.7 sustained current (I40-ms), % of control peak” value is on record as 12.2 ± 1.2%. Moreover, the “mNaV1.7 sustained current, % of control peak” value at mouse NaV1.7 (3 µM peptide, step –90 to –20 mV, n = 4-5 cells, mean ± SEM, SEM) was determined as 8.8 ± 2.0%.
Turning to GLPLLALLMTLPFIQHAITN-NH2 [Mri1a], the “activity at hNaV1.9 (sustained current vs control)” value at human NaV1.9 is “inactive”. Moreover, the concentration giving a half-maximal response (EC50) was 3240 nM on human NaV1.6; above 10000 nM at human NaV1.7 (EC50 (potency), hNaV1.7); 5600 nM at human NaV1.7 (NaV1.7, best-fit EC50). Also, the “hNaV1.7 peak current amplitude, % of control” value on human NaV1.7 was 68.1 ± 10.6%. For the same substance, the “hNaV1.7 sustained current (I40-ms), % of control peak” value at human NaV1.7 (SEM) is reported as 3.4 ± 0.7%.
